Read-outs that look alike come from different tables or passages of the source. Each block holds one compound with its values, some of them ahead of it.
Experiments:
LPAR1 = target: T1, LPAR1 (Homo sapiens, UniProt Q92633); assay: Cell calcium flux assay (antagonist mode, LPA at EC80, FLIPR); assay type: cell-based
T1 construct: expressed in transfected cells; host or cells: CHO (CHO-LPA1 cells)
Procedure: • 1) The test compound was diluted to a 400X stock solution with DMSO in a 384-well plate. • 2) 1 µl of compound solution from step 1 was transferred into 39 ul of assay buffer to prepare a 10X working solution in a 384-well plate using a Bravo automated liquid handling platform. • 3) CHO-LPA1 cells were cultured in F12 medium (10% FBS). • 4) When cells reached 80% confluence, the cells were dissociated using 0.25% trypsin-EDTA. • 5) Cell density was determined and the cells were diluted to 4x10e5/ml using F12 (10% FBS). • 6) 30 µl of the cell suspension was dispensed into a 384-well plate (corning 3764#) using a multidrop automated dispenser, resulting in 12,000 cells per well. The plate was incubated at 37°C with 5% CO2 for 18-20 hours. • 7) The medium was replaced with 25 uL of serum-free medium and incubated overnight. • 8) 10 ul of 3.5X loading dye was added to each well of the cell plate. The plate was incubated in the dark at 37°C with 5% CO2 for 0.5-1 hours. • 9) After incubation, 5 µl of the 10X working solution from step 2 was transferred to the cell plate. • 10) The cell plate was incubated in the dark at 25°C for 15 minutes, and then the calcium signals were read. • 11) A 5X agonist (LPA) working solution in 1X HBSS+20 mM HEPES+0.1% BSA was prepared in a 384-well assay plate (greiner 784075#), with at least 20 µl per well. The agonist concentration used in this assay was determined based on the dose-response curve from a prior agonist mode experiment, with the EC80 value serving as the final agonist concentration. • 12) Data were read and saved using FLIPR at room temperature with the specified settings. • 13) The signal values were plotted against compound concentrations, and the curve fitting was performed and the IC50 values were calculated using nonlinear regression analysis in GraphPad Prism software.
IC50 values are represented by grades A, B, C, and D, where A represents 0 < IC50 ≤ 10 nM, B represents 10 nM < IC50 ≤ 50 nM, C represents 50 nM < IC50 ≤ 100 nM, and D represents IC50 > 100 nM. Table 1 Antagonistic activity of the compounds of the present invention against LPAR1

[1] = Pharmacokinetic test in mice; assay type: in vivo, C57 mice; settings: for pharmacokinetic characteristics in mice: conclusion in words; for Vd: read-out: Vdss
Procedure: 2.1 Experimental animals: Male C57 mice, 20-25 g, 6 mice/compound, purchased from Chengdu Ddossy Experimental Animals Co., Ltd.
2.2 Experimental design: On the day of the experiment, the C57 mice were randomly grouped according to their body weights. The animals were fasted with water available for 12-14 h one day before the administration, and were fed 4 h after the administration. Table 2. Administration information
Before and after administration, 0.06 mL of blood was taken from the orbit under isoflurane anaesthesia and placed in an EDTAK2 centrifuge tube. The tube was centrifuged at 5000 rpm at 4°C for 10 min, and plasma was collected. The blood collection time points for the intravenous administration group and oral gavage administration group were: 0 min, 5 min, 15 min, 30 min, 1 h, 2 h, 4 h, 6 h, 8 h, and 24 h. Before analysis and detection, all samples were stored at -80°C, and the samples were quantitatively analysed by LC-MS/MS. Table 3. Pharmacokinetic parameters of test compounds in plasma of mice

[2] = CHO-LPA1 cells, calcium flux, grades, read-out: LPAR1 IC50
[3] = antagonistic activity against the LPAR1 receptor, read-out: IC50 values
[4] = mouse, iv, mice, i.v. (1 mg/kg), plasma
[5] = mouse, po, mice, i.g. (3 mg/kg), plasma

T1 sequence (Q92633 whole entry): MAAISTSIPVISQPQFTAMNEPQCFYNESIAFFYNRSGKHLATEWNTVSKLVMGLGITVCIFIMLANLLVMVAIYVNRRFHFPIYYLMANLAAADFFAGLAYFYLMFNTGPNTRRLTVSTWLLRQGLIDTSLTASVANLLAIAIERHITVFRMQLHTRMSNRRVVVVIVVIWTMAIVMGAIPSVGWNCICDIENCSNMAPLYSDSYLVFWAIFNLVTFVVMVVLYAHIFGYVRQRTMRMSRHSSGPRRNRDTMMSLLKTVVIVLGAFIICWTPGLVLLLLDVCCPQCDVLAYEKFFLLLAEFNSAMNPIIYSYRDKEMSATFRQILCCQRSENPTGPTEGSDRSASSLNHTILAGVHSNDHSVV

IC50 (LPAR1; [2]): < 0.01 µM
Structure (SMILES): C=C1CC(CN(C)C(=O)OCc2c(-c3ccc(NC(=O)C4C(C(=O)O)C4(F)F)c(C)n3)nnn2C)C1 (single isomer, unassigned) [Compound 35-2]

IC50 (LPAR1; [2]): < 0.01 µM
Structure (SMILES): C=C1CC(N(C)C(=O)OCc2c(-c3ccc(NC(=O)C4C(C(=O)O)C4(F)F)c(C)n3)nnn2C)C1 (single isomer, unassigned) [Compound 34-2]

IC50 (LPAR1; [2]): 0.01 to 0.05 µM
Structure (SMILES): Cc1nc(-c2nnn(C)c2CNC(=O)OC2CC(=C(F)F)C2)ccc1OC1CCCCC(C(=O)O)C1 (single isomer, unassigned) [Compound 48-2]

More lines, now with the values behind:

Structure (SMILES): C=C1CC(N(C)C(=O)OCc2c(-c3ccc(OCC4C(C(=O)O)C4(F)F)c(C)n3)nnn2C)C1 (single isomer, unassigned) [Compound 32-4]
IC50 (LPAR1; [2]): < 0.01 µM

Structure (SMILES): Cc1nc(-c2nnn(C)c2COC(=O)N(C)[C@H]2C[C@@H](OC(F)F)C2)ccc1O[C@H]1CCC[C@H](C(=O)O)C1 [Compound 39]
IC50 (LPAR1; [2]): < 0.01 µM

Structure (SMILES): Cc1nc(-c2nnn(C)c2COC(=O)N(C)C2CC(=C(F)F)C2)ccc1O[C@H]1CCC[C@H](C(=O)O)C1 (stereo partly drawn) [Compound 12]
IC50 (LPAR1; [2]): < 0.01 µM | IC50 (LPAR1; [3]): 0.002 µM | pharmacokinetic characteristics in mice [1]: excellent pharmacokinetic characteristics | C0 or Cmax ([1]; mice, i.g. (3 mg/kg), plasma): 0.581 ± 0.018 µg/mL | C0 or Cmax ([1]; mice, i.v. (1 mg/kg), plasma): 1.938 ± 0.258 µg/mL | AUC(0-t) [1, 4]: 0.962 ± 0.131 µg·h/mL | clearance [1, 4]: 1.05 ± 0.144 L/h/kg | Vd [1, 4]: 2.57 ± 0.23 L/kg | AUC(0-t) [1, 5]: 1.45 ± 0.081 µg·h/mL

Structure (SMILES): C=C1CC(N(C)C(=O)OCc2c(-c3ccc(OCC4C(C(=O)O)C4(F)F)c(C)n3)nnn2C)C1 (single isomer, unassigned) [Compound 32-1]
IC50 (LPAR1; [2]): < 0.01 µM

Structure (SMILES): C=C1CC(N(C)C(=O)OCc2c(-c3ccc(N[C@H]4CCC[C@H](C(=O)O)C4)c(C)n3)nnn2C)C1 [Compound 21]
IC50 (LPAR1; [2]): < 0.01 µM

Structure (SMILES): C=C1CC(N(C)C(=O)OCc2c(-c3ccc(OCC4(CC(=O)O)CC4)c(C)n3)nnn2C)C1 [Compound 36]
IC50 (LPAR1; [2]): < 0.01 µM

Structure (SMILES): Cc1nc(-c2nnn(C)c2CNC(=O)O[C@H]2C[C@H](OC(F)(F)F)C2)ccc1O[C@H]1CCC[C@H](C(=O)O)C1 [Compound 42]
IC50 (LPAR1; [2]): < 0.01 µM

Structure (SMILES): C=C1CC(N(C)C(=O)OCc2c(-c3ccc(OCC4C(C(=O)O)C4(F)F)c(C)n3)nnn2C)C1 (stereo not drawn) [Compound 25]
IC50 (LPAR1; [2]): < 0.01 µM

Structure (SMILES): Cc1nc(-c2nnn(C)c2COC(=O)N(C)OC2CCC2)ccc1O[C@H]1CCC[C@H](C(=O)O)C1 [Compound 15]
IC50 (LPAR1; [2]): 0.01 to 0.05 µM

Structure (SMILES): CC(C)=C1CC(N(C)C(=O)OCc2c(-c3ccc(O[C@H]4CCC[C@H](C(=O)O)C4)c(C)n3)nnn2C)C1 (stereo partly drawn) [Compound 18]
IC50 (LPAR1; [2]): < 0.01 µM

Structure (SMILES): CCCN(C)C(=O)OCc1c(-c2ccc(O[C@H]3CC(=C(F)F)C[C@H](C(=O)O)C3)c(C)n2)nnn1C [Compound 38]
IC50 (LPAR1; [2]): < 0.01 µM

Structure (SMILES): C=C1CC(N(C)C(=O)OCc2c(-c3ccc(O[C@H]4CCC[C@H](C(=O)O)C4)c(C)n3)nnn2C)C1 [Compound 4]
IC50 (LPAR1; [2]): < 0.01 µM | IC50 (LPAR1; [3]): 0.002 µM | pharmacokinetic characteristics in mice [1]: excellent pharmacokinetic characteristics | C0 or Cmax ([1]; mice, i.g. (3 mg/kg), plasma): 0.687 ± 0.331 µg/mL | C0 or Cmax ([1]; mice, i.v. (1 mg/kg), plasma): 1.066 ± 0.134 µg/mL | AUC(0-t) [1, 4]: 0.51 ± 0.095 µg·h/mL | clearance [1, 4]: 1.99 ± 0.336 L/h/kg | Vd [1, 4]: 5.11 ± 1 L/kg | bioavailability ([1]; mouse, plasma, po, mice, i.g. (3 mg/kg)): ≥ 98% | AUC(0-t) [1, 5]: 2.18 ± 0.672 µg·h/mL

Structure (SMILES): Cc1nc(-c2nnn(C)c2COC(=O)N(C)CC2CC(=C(F)F)C2)ccc1O[C@H]1CCC[C@H](C(=O)O)C1 (stereo partly drawn) [Compound 13]
IC50 (LPAR1; [2]): 0.01 to 0.05 µM

Source: patent publication EP4775571A1, “LPAR1 ANTAGONIST AND USE THEREOF” (Haisco Pharmaceutical Group Co., Ltd., priority 2023, dated 2025)
